Experimental findings from patent US9067922B2, “Chemical compounds” (Pfizer Limited, priority 2013, dated 2015) are described below.

This experiment deals with URAT-1 transporter (Homo sapiens (Human), UniProt Q96S37). In words: URAT-1 inhibitor activity: [14C]-uric acid uptake in CHO-URAT1(L)GFP#8 (CHO#8) cells, scintillation proximity. Particulars: inhibition of [14C]-uric acid (30 nM) uptake into CHO#8 cells; compound 0 to 10 μM; 4 parameter logistic fit. In kind it is cell-based. In outline:
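CHO cells stably expressing human URAT1 long isoform–eGFP fusion, pre-incubated 1 h in chloride-containing buffer pH 7.4, then given 30 nM [14C]-uric acid with compound (0–10 μM, 0.25% DMSO) in chloride-free gluconate buffer pH 7.4. Uptake measured by scintillation proximity on Cytostar plates.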
As to `N#Cc1cc(S(=O)(=O)Nc2ccc(F)cn2)ccc1Oc1cc(F)ccc1Cl` [Example 176, 4-(2-chloro-5-fluorophenoxy)-3-cyano-N-(5-fluoropyridin-2-yl)benzenesulfonamide], inhibition was half-maximal at 1020 nM (IC50).

Consider `Cc1cccc(C)c1Oc1ccc(S(=O)(=O)Nc2ccc(F)cn2)cc1C#N` [Example 152, 3-cyano-4-(2,6-dimethylphenoxy)-N-(5-fluoropyridin-2-yl)benzenesulfonamide], for which the IC50 stood at 50 nM. This IC50 is about 20-fold lower than that of the compound before.

Take `N#Cc1ccc(Oc2ccc(S(=O)(=O)Nc3ncccn3)cc2C#N)cc1Cl` [Example 90, 4-(3-chloro-4-cyanophenoxy)-3-cyano-N-(pyrimidin-2-yl)benzenesulfonamide]: the IC50 was more than 3580 nM.

As to `N#Cc1ccc(Oc2ccc(S(=O)(=O)Nc3cccnn3)cc2C#N)cc1F` [Example 88, 3-cyano-4-(4-cyano-3-fluorophenoxy)-N-(pyridazin-3-yl)benzenesulfonamide], the IC50 turned out to be 429 nM. In other words, the sub-micromolar range.

With `N#Cc1cc(S(=O)(=O)Nc2ccc(F)cn2)ccc1Oc1cc(Cl)ccc1Cl` [Example 170, 3-cyano-4-(2,5-dichlorophenoxy)-N-(5-fluoropyridin-2-yl)benzenesulfonamide], the IC50 stood at 570 nM.

`N#Cc1cc(S(=O)(=O)Nc2ccc(F)cn2)ccc1Oc1ccc(CO)c(Cl)c1` [Example 247, 4-[3-chloro-4-(hydroxymethyl)phenoxy]-3-cyano-N-(5-fluoropyridin-2-yl)benzenesulfonamide] returned an IC50 of 1 nM.

`COc1ccc(Oc2ccc(S(=O)(=O)Nc3ccc(F)cn3)cc2C#N)cn1` [Example 199, 3-cyano-N-(5-fluoropyridin-2-yl)-4-[(6-methoxypyridin-3-yl)oxy]benzenesulfonamide] came in with an IC50 of 129 nM.

The compound `Cc1ccc(Cl)cc1Oc1ccc(S(=O)(=O)Nc2ccc(F)cn2)cc1C#N` [Example 39, 4-(5-chloro-2-methylphenoxy)-3-cyano-N-(5-fluoropyridin-2-yl)benzenesulfonamide] gave an IC50 of 80 nM.

Compound `COc1ccc(Oc2ccc(S(=O)(=O)Nc3ccc(F)cn3)cc2C#N)c(Cl)c1` [Example 168, 4-(2-chloro-4-methoxyphenoxy)-3-cyano-N-(5-fluoropyridin-2-yl)benzenesulfonamide] came in with an IC50 of 612 nM.

Compound `COc1cc(F)cc(Oc2ccc(S(=O)(=O)Nc3ccc(F)cn3)cc2C#N)c1` [Example 8, 3-cyano-4-(3-fluoro-5-methoxyphenoxy)-N-(5-fluoropyridin-2-yl)benzenesulfonamide] yielded an IC50 of 119 nM.

Consider `N#Cc1cc(S(=O)(=O)Nc2ccc(F)cn2)ccc1Oc1ccc(F)c(F)c1Cl` [Example 167, 4-(2-chloro-3,4-difluorophenoxy)-3-cyano-N-(5-fluoropyridin-2-yl)benzenesulfonamide], for which the IC50 came out at 50 nM.

As for `N#Cc1cc(S(=O)(=O)Nc2ccc(F)cn2)ccc1Oc1ccc(F)c(F)c1F` [Example 157, 3-cyano-N-(5-fluoropyridin-2-yl)-4-(2,3,4-trifluorophenoxy)benzenesulfonamide], the IC50 was determined as 51 nM.

In turn, `N#Cc1cc(S(=O)(=O)Nc2ccc(F)cn2)ccc1Oc1ccc(Cl)c(Cl)c1` [Example 122, 3-cyano-4-(3,4-dichlorophenoxy)-N-(5-fluoropyridin-2-yl)benzenesulfonamide] displayed an IC50 of 99 nM.

Regarding `CSc1ccccc1Oc1ccc(S(=O)(=O)Nc2ccc(F)cn2)cc1C#N` [Example 146, 3-cyano-N-(5-fluoropyridin-2-yl)-4-[2-(methylsulfanyl)phenoxy]benzenesulfonamide], the IC50 came out at 506 nM.

Turning to `O=S(=O)(Nc1cccnn1)c1cc(Cl)c(Oc2ccc(Cl)cc2OC(F)F)cc1F` [Example 85, 5-chloro-4-[4-chloro-2-(difluoromethoxy)phenoxy]-2-fluoro-N-(pyridazin-3-yl)benzenesulfonamide], the IC50 was more than 10000 nM.

In the case of “4-{4-chloro-2-[D3-methyloxy]phenoxy}-3-cyano-N-(pyridazin-3-yl)benzenesulfonamide [Example 82]”, it took 409 nM to reach half-maximal inhibition (IC50).

The compound `N#Cc1cc(S(=O)(=O)Nc2ccc(F)cn2)ccc1Oc1c(F)ccc(F)c1F` [Example 134, 3-cyano-N-(5-fluoropyridin-2-yl)-4-(2,3,6-trifluorophenoxy)benzenesulfonamide] returned an IC50 of more than 10000 nM.
